{"source": "patent US20100160266A1", "about": "“ORGANIC COMPOUNDS” (NABRIVA TH[…], priority 2005, published 2010)", "tested_on": "anaerobic bacteria", "assay": "in vitro acne assays: MIC by agar dilution technique on Wilkins-Chalgren Agar (NCCLS guidelines)", "format": "cell-based", "details": "compared with the same pleuromutilin in the form of a hydrochloride", "procedure": "E.g. in commercially available in vitro acne assays (the determination of the minimal inhibitory concentration (MIC) is performed according to the approved NCCLS guidelines^1) by agar dilution technique on Wilkins-Chalgren Agar—1) National committee for clinical laboratory standards. Methods for Antimicrobial susceptibility testing of anaerobic bacteria. 1993.", "data": [{"smiles": "C=CC1(C)CC(OC(=O)CSC2CCCN(C(=O)C(N)C(C)C)C2)C2(C)C(C)CCC3(CCC(=O)C32)C(C)C1O", "note": "[Example 1, 14-O—[(N—((R)-Valyl)-piperidine-3(S)-yl)-sulfanylacetyl)-mutilin]", "values": [{"measurement": "activity in in vitro acne assays (minimal inhibitory concentration, MIC)", "result": "remarkably better activity"}]}]}
